Experiments:
human TLR8 = target: T1, human TLR8 (Homo sapiens, UniProt Q9NR97); assay: HEK293-Blue-hTLR-8 cells assay
T1 sequence (Q9NR97 27-1041): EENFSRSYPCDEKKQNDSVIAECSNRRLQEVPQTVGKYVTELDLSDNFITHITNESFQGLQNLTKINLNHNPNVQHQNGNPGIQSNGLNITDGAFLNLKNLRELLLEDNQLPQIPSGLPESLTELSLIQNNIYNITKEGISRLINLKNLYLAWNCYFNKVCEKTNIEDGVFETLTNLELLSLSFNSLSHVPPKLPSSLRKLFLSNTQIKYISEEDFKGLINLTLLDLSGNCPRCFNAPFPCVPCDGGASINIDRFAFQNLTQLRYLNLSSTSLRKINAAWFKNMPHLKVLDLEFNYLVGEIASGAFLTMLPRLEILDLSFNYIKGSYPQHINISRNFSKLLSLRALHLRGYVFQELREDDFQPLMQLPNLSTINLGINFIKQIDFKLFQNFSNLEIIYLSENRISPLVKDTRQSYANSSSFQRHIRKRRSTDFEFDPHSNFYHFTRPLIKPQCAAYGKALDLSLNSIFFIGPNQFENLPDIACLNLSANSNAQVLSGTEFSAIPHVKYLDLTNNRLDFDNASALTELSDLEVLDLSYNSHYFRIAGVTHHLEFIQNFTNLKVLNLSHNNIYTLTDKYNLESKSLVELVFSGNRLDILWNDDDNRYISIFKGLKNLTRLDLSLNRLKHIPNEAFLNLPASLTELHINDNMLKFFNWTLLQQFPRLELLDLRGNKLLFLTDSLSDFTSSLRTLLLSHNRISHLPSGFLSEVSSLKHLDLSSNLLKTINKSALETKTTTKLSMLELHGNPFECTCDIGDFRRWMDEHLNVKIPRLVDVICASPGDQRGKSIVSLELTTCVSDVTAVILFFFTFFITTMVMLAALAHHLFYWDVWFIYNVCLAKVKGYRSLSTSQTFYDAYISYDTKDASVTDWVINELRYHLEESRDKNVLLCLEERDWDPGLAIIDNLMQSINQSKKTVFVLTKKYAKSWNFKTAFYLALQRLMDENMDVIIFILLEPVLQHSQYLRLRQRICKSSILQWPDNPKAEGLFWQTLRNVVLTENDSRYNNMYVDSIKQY

human TLR7 = target: T2, human TLR7 (Homo sapiens, UniProt Q9NYK1); assay: HEK293-Blue-hTLR-7 cells assay; format: cell-based; conditions: HEK293-Blue-hTLR7 cells, R848 stimulation, 20 hrs, SEAP reporter; read-out: HEK/hTLR7 IC50
T2 construct: host or cells: HEK293 (HEK-Blue hTLR7)
T2 sequence (Q9NYK1 27-1049): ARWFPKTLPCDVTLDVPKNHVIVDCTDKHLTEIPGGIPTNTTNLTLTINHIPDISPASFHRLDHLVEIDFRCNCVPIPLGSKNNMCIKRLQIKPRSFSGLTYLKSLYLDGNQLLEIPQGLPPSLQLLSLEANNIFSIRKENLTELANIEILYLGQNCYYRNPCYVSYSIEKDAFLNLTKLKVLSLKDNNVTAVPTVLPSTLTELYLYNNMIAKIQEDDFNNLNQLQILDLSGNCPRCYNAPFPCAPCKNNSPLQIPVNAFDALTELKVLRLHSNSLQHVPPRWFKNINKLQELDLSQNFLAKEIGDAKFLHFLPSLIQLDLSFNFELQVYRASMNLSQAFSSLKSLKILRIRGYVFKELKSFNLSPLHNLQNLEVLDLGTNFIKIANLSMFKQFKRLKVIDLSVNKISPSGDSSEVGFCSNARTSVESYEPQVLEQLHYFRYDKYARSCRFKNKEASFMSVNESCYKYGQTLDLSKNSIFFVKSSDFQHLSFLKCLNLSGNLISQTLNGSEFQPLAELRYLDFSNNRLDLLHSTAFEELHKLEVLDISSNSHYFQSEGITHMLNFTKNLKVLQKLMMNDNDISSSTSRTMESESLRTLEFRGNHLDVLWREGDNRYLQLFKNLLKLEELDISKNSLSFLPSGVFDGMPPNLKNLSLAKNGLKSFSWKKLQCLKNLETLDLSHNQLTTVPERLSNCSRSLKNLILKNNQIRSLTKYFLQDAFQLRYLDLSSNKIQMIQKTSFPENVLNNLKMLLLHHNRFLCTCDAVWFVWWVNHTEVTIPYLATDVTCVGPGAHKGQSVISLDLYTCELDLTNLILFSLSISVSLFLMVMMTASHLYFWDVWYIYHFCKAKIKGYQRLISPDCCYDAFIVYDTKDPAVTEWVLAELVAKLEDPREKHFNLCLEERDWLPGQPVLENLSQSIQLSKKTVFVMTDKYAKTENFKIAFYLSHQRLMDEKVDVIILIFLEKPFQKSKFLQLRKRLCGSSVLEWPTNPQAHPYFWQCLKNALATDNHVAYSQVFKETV

Row | SMILES | IC50 (human TLR8) [nM] | IC50 (human TLR7) [nM]
1 | [2H]c1ccc2c(N3C[C@@H]4CN(CCc5ccc(N6C[C@H]7NCCO[C@@H]7C6)nc5)CCN4[C@H](C)C3)ccc(C#N)c2n1 [Example 77, 5-[(4R,9aS)-8-[2-[6-[(4aR,7aR)-3,4,4a,5,7,7a-hexahydro-2H-pyrrolo[3,4-b][1,4]oxazin-6-yl]-3-pyridyl]ethyl]-4-methyl-3,4,6,7,9,9a-hexahydro-1H-pyrazino[1,2-a]pyrazin-2-yl]-2-deuterio-quinoline-8-carbonitrile] | 24 | 21
2 | [2H]c1ccc2c(N3C[C@@H]4CN(Cc5ccc(N6CCNCC6)nc5)CCN4[C@H](C)C3)ccc(C#N)c2n1 [Example 78, 5-[(4R,9aS)-4-methyl-8-[(6-piperazin-1-yl-3-pyridyl)methyl]-3,4,6,7,9,9a-hexahydro-1H-pyrazino[1,2-a]pyrazin-2-yl]-2-deuterio-quinoline-8-carbonitrile] | 17 | 35
3 | [2H]c1ccc2c(N3C[C@@H]4CN(Cc5ccc(N6CC(C)(N)C6)nc5C)CCN4[C@H](C)C3)ccc(C#N)c2n1 [Example 79, 5-[(4R,9aS)-8-[[6-(3-amino-3-methyl-azetidin-1-yl)-2-methyl-3-pyridyl]methyl]-4-methyl-3,4,6,7,9,9a-hexahydro-1H-pyrazino[1,2-a]pyrazin-2-yl]-2-deuterio-quinoline-8-carbonitrile] | 6 | 19
4 | [2H]c1ccc2c(N3C[C@@H]4CN(c5ncc(C(=O)N6CC7(CN(C)C7)C6)cc5C)CCN4[C@H](C)C3)ccc(C#N)c2n1 [Example 102, 5-[(4R,9aR)-4-methyl-8-[3-methyl-5-(6-methyl-2,6-diazaspiro[3.3]heptane-2-carbonyl)-2-pyridyl]-3,4,6,7,9,9a-hexahydro-1H-pyrazino[1,2-a]pyrazin-2-yl]-2-deuterio-quinoline-8-carbonitrile] | 2 | 4
5 | [2H]c1ccc2c(N3C[C@@H]4CN(c5ncc(C(=O)N6CC7(CN(C)C7)C6)cc5C)CCN4[C@@H](C)C3)ccc(C#N)c2n1 [Example 103, 5-[(4S,9aR)-4-methyl-8-[3-methyl-5-(6-methyl-2,6-diazaspiro[3.3]heptane-2-carbonyl)-2-pyridyl]-3,4,6,7,9,9a-hexahydro-1H-pyrazino[1,2-a]pyrazin-2-yl]-2-deuterio-quinoline-8-carbonitrile] | 4 | 6
6 | C[C@@H]1CN(c2ccc(C#N)c3ncccc23)C[C@@H]2CN(c3ccnc(N4CC[C@@](C)(N)C4)c3)CCN21 [Example 105, 5-[(4R,9aS)-8-[2-[(3R)-3-amino-3-methyl-pyrrolidin-1-yl]-4-pyridyl]-4-methyl-3,4,6,7,9,9a-hexahydro-1H-pyrazino[1,2-a]pyrazin-2-yl]quinoline-8-carbonitrile] | 7 | 26
7 | [2H]c1ccc2c(N3C[C@@H]4CN(c5ccc([C@@H]6CNCCO6)cc5)CCN4[C@@H](C)C3)ccc(C#N)c2n1 [Example 106, 5-[(4S,9aS)-4-methyl-8-[4-[(2R)-morpholin-2-yl]phenyl]-3,4,6,7,9,9a-hexahydro-1H-pyrazino[1,2-a]pyrazin-2-yl]-2-deuterio-quinoline-8-carbonitrile] | 4 | 2
8 | [2H]c1ccc2c(N3C[C@@H]4CN(c5ccc([C@H]6CNCCO6)cc5)CCN4[C@@H](C)C3)ccc(C#N)c2n1 [Example 107, 5-[(4S,9aS)-4-methyl-8-[4-[(2S)-morpholin-2-yl]phenyl]-3,4,6,7,9,9a-hexahydro-1H-pyrazino[1,2-a]pyrazin-2-yl]-2-deuterio-quinoline-8-carbonitrile] | 4 | 3
9 | [2H]c1ccc2c(N3C[C@@H]4CN(c5ncc(N6CC7CC(C6)N7)cc5C)CCN4[C@@H](C)C3)ccc(C#N)c2n1 [Example 108, 5-[(4S,9aR)-8-[5-(3,6-diazabicyclo[3.1.1]heptan-3-yl)-3-methyl-2-pyridyl]-4-methyl-3,4,6,7,9,9a-hexahydro-1H-pyrazino[1,2-a]pyrazin-2-yl]-2-deuterio-quinoline-8-carbonitrile] | 6 | 3
10 | [2H]c1ccc2c(N3C[C@@H]4CN(c5ccc(CCN6C[C@H](OC)[C@@H](N)C6)cn5)CCN4[C@H](C)C3)ccc(C#N)c2n1 [Example 109, 5-[(4R,9aR)-8-[5-[2-[(3S,4S)-3-amino-4-methoxy-pyrrolidin-1-yl]ethyl]-2-pyridyl]-4-methyl-3,4,6,7,9,9a-hexahydro-1H-pyrazino[1,2-a]pyrazin-2-yl]-2-deuterio-quinoline-8-carbonitrile] | 4 | 5
11 | [2H]c1ccc2c(N3C[C@@H]4CN(c5ncc(N6C[C@@H]7C[C@H]6CN7)cc5C)CCN4[C@@H](C)C3)ccc(C#N)c2n1 [Example 111, 5-[(4S,9aR)-8-[5-[(1S,4S)-2,5-diazabicyclo[2.2.1]heptan-2-yl]-3-methyl-2-pyridyl]-4-methyl-3,4,6,7,9,9a-hexahydro-1H-pyrazino[1,2-a]pyrazin-2-yl]-2-deuterio-quinoline-8-carbonitrile] | 5 | 6
12 | [2H]c1ccc2c(N3C[C@@H]4CN(c5ccc(N6CC7CCC(C6)N7)nc5)CCN4[C@@H](C)C3)ccc(C#N)c2n1 [Example 112, 5-[(4S,9aR)-8-[6-(3,8-diazabicyclo[3.2.1]octan-3-yl)-3-pyridyl]-4-methyl-3,4,6,7,9,9a-hexahydro-1H-pyrazino[1,2-a]pyrazin-2-yl]-2-deuterio-quinoline-8-carbonitrile] | 10 | 4
13 | Cc1cc(N2CC3(CN(C)C3)C2)cnc1N1CCN2[C@@H](C1)CN(c1cc(=O)n(C)c3ncccc13)C[C@@H]2C [Example 113, 4-[(4S,9aR)-4-methyl-8-[3-methyl-5-(6-methyl-2,6-diazaspiro[3.3]heptan-2-yl)-2-pyridyl]-3,4,6,7,9,9a-hexahydro-1H-pyrazino[1,2-a]pyrazin-2-yl]-1-methyl-1,8-naphthyridin-2-one] | 142 | 6
14 | [2H]c1ccc2c(N3C[C@@H]4CN(c5ncc(N6C[C@H]7NCCO[C@@H]7C6)cc5C)CCN4[C@@H](C)C3)ccc(C#N)c2n1 [Example 114, 5-[(4S,9aR)-8-[5-[(4aR,7aR)-3,4,4a,5,7,7a-hexahydro-2H-pyrrolo[3,4-b][1,4]oxazin-6-yl]-3-methyl-2-pyridyl]-4-methyl-3,4,6,7,9,9a-hexahydro-1H-pyrazino[1,2-a]pyrazin-2-yl]-2-deuterio-quinoline-8-carbonitrile] | 10 | 2
15 | [2H]c1ccc2c(N3C[C@@H]4CN(c5ccc(N6C[C@@H](N)[C@H](OC)C6)nc5)CCN4[C@@H](C)C3)ccc(C#N)c2n1 [Example 115, 5-[(4S,9aR)-8-[6-[(3R,4R)-3-amino-4-methoxy-pyrrolidin-1-yl]-3-pyridyl]-4-methyl-3,4,6,7,9,9a-hexahydro-1H-pyrazino[1,2-a]pyrazin-2-yl]-2-deuterio-quinoline-8-carbonitrile] | 17 | 10

— patent US20220340597A1, “HEXAHYDRO-1H-PYRAZINO[1,2-A]PYRAZINE COMPOUNDS FOR THE TREATMENT OF AUTOIMMUNE DISEASE” (Hoffmann-La Roche Inc., priority 2019, published 2022)
